From publication PMC12073194, “Echinacoside Ameliorates UVB-Induced Skin Damage Through Selective Inhibition of the Cutaneous TRPV3 Channel” (Molecules, 2025)

Target: T1, TRPV3 (hTRPV3, transient receptor potential vanilloid 3) (Homo sapiens, UniProt Q8NET8)
T1 construct: hTRPV3 (NM_145068.4)
T1 sequence (Q8NET8 1-790): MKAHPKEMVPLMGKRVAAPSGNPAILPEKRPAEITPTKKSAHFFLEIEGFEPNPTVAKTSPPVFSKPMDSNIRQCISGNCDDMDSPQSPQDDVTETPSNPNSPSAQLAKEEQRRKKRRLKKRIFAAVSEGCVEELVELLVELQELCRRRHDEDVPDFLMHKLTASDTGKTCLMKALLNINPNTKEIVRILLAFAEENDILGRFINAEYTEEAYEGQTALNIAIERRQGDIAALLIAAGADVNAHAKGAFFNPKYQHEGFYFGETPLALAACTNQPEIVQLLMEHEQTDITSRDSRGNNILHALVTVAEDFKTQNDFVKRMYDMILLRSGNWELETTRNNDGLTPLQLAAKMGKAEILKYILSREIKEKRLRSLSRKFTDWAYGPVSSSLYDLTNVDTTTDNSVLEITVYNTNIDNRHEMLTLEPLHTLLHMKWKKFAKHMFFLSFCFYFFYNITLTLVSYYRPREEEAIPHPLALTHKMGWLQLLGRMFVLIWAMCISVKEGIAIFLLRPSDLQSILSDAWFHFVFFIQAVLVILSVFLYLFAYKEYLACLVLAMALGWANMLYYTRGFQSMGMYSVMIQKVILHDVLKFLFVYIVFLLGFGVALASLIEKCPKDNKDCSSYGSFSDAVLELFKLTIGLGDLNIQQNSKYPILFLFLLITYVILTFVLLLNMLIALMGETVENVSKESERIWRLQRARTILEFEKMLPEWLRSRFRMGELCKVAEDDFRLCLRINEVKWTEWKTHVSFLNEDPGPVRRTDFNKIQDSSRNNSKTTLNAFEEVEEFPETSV
Experiment: whole-cell and inside-out single-channel patch clamp in HEK293T cells; site-directed mutagenesis
Type: cell-based

SMILES: C[C@@H]1O[C@@H](O[C@@H]2[C@@H](O)[C@H](OCCc3ccc(O)c(O)c3)O[C@H](CO[C@@H]3O[C@H](CO)[C@@H](O)[C@H](O)[C@H]3O)[C@H]2OC(=O)/C=C/c2ccc(O)c(O)c2)[C@H](O)[C@H](O)[C@H]1O [echinacoside]
- IC50: 21.9 ± 1.28 µM
